17 compounds from US9409952B2, “Peptide-compound cyclization method” (Chugai Seiyaku Kabushiki Kaisha, priority 2011, dated 2016) can be followed below.

Starred links: 1 amine or outer side, 2 acyl side, 3 side chain; linkers in the order of their positions; H or OH if unused. Positions of bridges follow the written chain, without caps; N, C: chain ends. Non-standard residues stand in square brackets, D forms with d. Residues, ends and D or L forms follow the SMILES beside them. *: point of attachment. Phe(4-(CH2)5CO) = O=C([C@H](Cc1ccc(CCCCCC(=O)[*:3])cc1)N[*:1])[*:2]; Phe(3-(CH2)4CO) = O=C([C@H](Cc1cccc(CCCCC(=O)[*:3])c1)N[*:1])[*:2]; NMeF = CN[C@@H](Cc1ccccc1)C(=O)O; NMeI = CC[C@H](C)[C@H](NC)C(=O)O; NMeL = CN[C@@H](CC(C)C)C(=O)O; NMeV = CN[C@H](C(=O)O)C(C)C; NMeA = CN[C@@H](C)C(=O)O; Piperidide = C1CCN(*)CC1; Sar = CNCC(=O)O; tBu = CC(C)(C)*

The nature of data set [1]: PAMPA (parallel artificial membrane permeability assay). The data set is classed as in vitro ADME. As to conditions: membrane permeation rate (Pe), 50 mM MOPSO buffer pH 6.5 with 5.0% glycocholic acid, 37° C., 18 hours; for Papp at 18 hours, 50 µM: PAMPA, read-out: iPAMPA Pe. The gist of the method:
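Artificial membrane was 10% (w/v) egg lecithin plus 0.5% (w/v) cholesterol in dodecane on a PVDF filter. A 10 mM DMSO stock was added at 0.5% (v/v) to donor buffer (50 mM MOPSO, pH 6.5, 5.0% glycocholic acid). After 18 h at 37 °C, LC/MS or LC/UV gave donor and acceptor levels for Pe.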

The nature of data set [2]: Metabolic stability in human hepatic microsome. The data set is classed as in vitro ADME. Particulars: microsomes, pH 7.4; human hepatic microsome, NADPH(+); read-out: CL NADPH(+).

As to `CC[C@H](C)[C@@H]1NC(=O)CCCCCc2ccc(cc2)C[C@@H](C(=O)N2CCCCC2)NC(=O)[C@H](Cc2ccccc2)N(C)C(=O)[C@H](CC(C)C)N(C)C(=O)[C@H](C)N(C)C(=O)[C@H](Cc2ccccc2)N(C)C(=O)[C@H]([C@@H](C)O)NC(=O)[C@H](CC(C)C)N(C)C(=O)[C@H](C)N(C)C(=O)[C@H](CC(C)C)N(C)C1=O` [DP-868] (I[NMeL][NMeA][NMeL]T[NMeF][NMeA][NMeL][NMeF][Phe(4-(CH2)5CO)]-Piperidide; lactam N-10), the Papp at 18 hours, 50 µM in data set [1] turned out to be 0.24 ×10⁻⁶ cm/s. The microsomal CLint at 1 uM in data set [2] worked out at 61 µL/min/mg.
The corresponding values for `C=C1CCC(=O)N[C@@H](CC(C)C)C(=O)N2CCC[C@H]2C(=O)N(C)[C@@H](C(C)C)C(=O)N[C@@H](Cc2ccccc2)C(=O)N(C)[C@@H](Cc2ccccc2)C(=O)N(C)[C@@H](CC(C)C)C(=O)N[C@@H](C)C(=O)N(C)[C@@H]([C@@H](C)CC)C(=O)N[C@H](C(=O)N2CCCCC2)Cc2ccc1cc2` [DP-869] are 0.86 ×10⁻⁶ cm/s and 331 µL/min/mg.
The corresponding values for `CC[C@H](C)[C@H]1C(=O)N[C@H](C(=O)N2CCCCC2)Cc2ccc(cc2)CCCCCC(=O)N[C@@H](CC(C)C)C(=O)N2CCC[C@H]2C(=O)N(C)[C@@H](C(C)C)C(=O)N[C@@H](Cc2ccccc2)C(=O)N(C)[C@@H](Cc2ccccc2)C(=O)N(C)[C@@H](CC(C)C)C(=O)N[C@@H](C)C(=O)N1C` [DP-871] (LP[NMeV]F[NMeF][NMeL]A[NMeI][Phe(4-(CH2)5CO)]-Piperidide; lactam N-9) are 1.2 ×10⁻⁶ cm/s and 389 µL/min/mg.
The matching figures for `CC[C@H](C)[C@H]1C(=O)N[C@H](C(=O)N2CCCCC2)Cc2cccc(c2)CCCCC(=O)N[C@@H](CC(C)C)C(=O)N2CCC[C@H]2C(=O)N(C)[C@@H](C(C)C)C(=O)N[C@@H](Cc2ccccc2)C(=O)N(C)[C@@H](Cc2ccccc2)C(=O)N(C)[C@@H](CC(C)C)C(=O)N[C@@H](C)C(=O)N1C` [DP-872] (LP[NMeV]F[NMeF][NMeL]A[NMeI][Phe(3-(CH2)4CO)]-Piperidide; lactam N-9): 3.1 ×10⁻⁶ cm/s and 397 µL/min/mg.
As for `CC[C@H](C)[C@H]1C(=O)N[C@@H](C)C(=O)N(C)[C@@H](CC(C)C)C(=O)N[C@@H](COC(C)(C)C)C(=O)N(C)[C@@H](CC(C)C)C(=O)N[C@H](C(=O)N2CCCCC2)Cc2ccc(cc2)CCCCCC(=O)N[C@@H](Cc2ccccc2)C(=O)N(C)[C@@H](Cc2ccccc2)C(=O)N(C)[C@@H](CC(C)C)C(=O)N[C@@H]([C@@H](C)O)C(=O)N(C)[C@@H](C)C(=O)N1C` [DP-873] (F[NMeF][NMeL]T[NMeA][NMeI]A[NMeL]S(tBu)[NMeL][Phe(4-(CH2)5CO)]-Piperidide; lactam N-11), in data set [1], the “iPAMPA Pe” value is recorded as 1.0E−07. Also, the microsomal CLint at 1 uM in data set [2] amounted to 39 µL/min/mg.
For the compound `CC[C@H](C)[C@H]1C(=O)N[C@@H](C)C(=O)N(C)[C@@H](CC(C)C)C(=O)N[C@@H](COC(C)(C)C)C(=O)N(C)[C@@H](CC(C)C)C(=O)N[C@H](C(=O)N2CCCCC2)Cc2cccc(c2)CCCCC(=O)N[C@@H](Cc2ccccc2)C(=O)N(C)[C@@H](Cc2ccccc2)C(=O)N(C)[C@@H](CC(C)C)C(=O)N[C@@H]([C@@H](C)O)C(=O)N(C)[C@@H](C)C(=O)N1C` [DP-874] (F[NMeF][NMeL]T[NMeA][NMeI]A[NMeL]S(tBu)[NMeL][Phe(3-(CH2)4CO)]-Piperidide; lactam N-11), the Papp at 18 hours, 50 µM in data set [1] stood at 0.15 ×10⁻⁶ cm/s. Further, the microsomal CLint at 1 uM in data set [2] worked out at 48 µL/min/mg.
On to `CC[C@H](C)[C@@H]1NC(=O)[C@H](CC(C)C)N(C)C(=O)[C@H](Cc2ccccc2)N(C)C(=O)[C@H](CC(C)C)NC(=O)CCCCCc2ccc(cc2)C[C@@H](C(=O)N2CCCCC2)NC(=O)[C@H](C)N(C)C(=O)[C@H](C)N(C)C(=O)CN(C)C(=O)[C@H]([C@@H](C)O)NC(=O)[C@H](Cc2ccccc2)N(C)C(=O)[C@H](C(C)C)N(C)C1=O` [DP-875] (L[NMeF][NMeL]I[NMeV][NMeF]T[Sar][NMeA][NMeA][Phe(4-(CH2)5CO)]-Piperidide; lactam N-11), for which the Papp at 18 hours, 50 µM in data set [1] came to 19 ×10⁻⁶ cm/s. Moreover, the microsomal CLint at 1 uM in data set [2] came to 34 µL/min/mg.
Consider `CC[C@H](C)[C@@H]1NC(=O)CCCCc2cccc(c2)C[C@@H](C(=O)N2CCCCC2)NC(=O)[C@H](C)N(C)C(=O)[C@H](CC(C)C)N(C)C(=O)CN(C)C(=O)[C@H]([C@@H](C)O)NC(=O)[C@H](Cc2ccccc2)N(C)C(=O)[C@H](CC(C)C)N(C)C(=O)[C@H](C)NC(=O)[C@H](C(C)C)N(C)C(=O)[C@H](Cc2ccccc2)N(C)C1=O` [DP-876] (I[NMeF][NMeV]A[NMeL][NMeF]T[Sar][NMeL][NMeA][Phe(3-(CH2)4CO)]-Piperidide; lactam N-11), for which the Papp at 18 hours, 50 µM in data set [1] amounted to 55 ×10⁻⁶ cm/s. Also, in data set [2], the microsomal CLint at 1 uM came to 103 µL/min/mg.
The matching figures for `CC[C@H](C)[C@H]1C(=O)N[C@@H](CC(C)C)C(=O)N(C)[C@@H](C)C(=O)N(C)[C@@H](Cc2ccccc2)C(=O)NCC(=O)N[C@@H]([C@@H](C)O)C(=O)N[C@@H](Cc2ccccc2)C(=O)N(C)[C@@H](CC(C)C)C(=O)N2CCC[C@H]2C(=O)N[C@H](C(=O)N2CCCCC2)Cc2cccc(c2)CCCCC(=O)N[C@@H](CC(C)C)C(=O)N1C` [DP-877] (L[NMeI]L[NMeA][NMeF]GTF[NMeL]P[Phe(3-(CH2)4CO)]-Piperidide; lactam N-11): 4.6 ×10⁻⁶ cm/s and 43 µL/min/mg.
For `CC[C@H](C)[C@H]1C(=O)N[C@H](C(=O)N2CCCCC2)Cc2ccc(cc2)CCCCCC(=O)N[C@@H]([C@@H](C)O)C(=O)N(C)[C@@H](Cc2ccccc2)C(=O)N[C@@H](CC(C)C)C(=O)N2CCC[C@H]2C(=O)N[C@@H](C(C)C)C(=O)N[C@@H](Cc2ccccc2)C(=O)N(C)CC(=O)N[C@@H](CC(C)C)C(=O)N[C@@H](C)C(=O)N1C` [DP-878] (T[NMeF]LPVF[Sar]LA[NMeI][Phe(4-(CH2)5CO)]-Piperidide; lactam N-11), the Papp at 18 hours, 50 µM in data set [1] worked out at 23 ×10⁻⁶ cm/s. For the same compound, in data set [2], the microsomal CLint at 1 uM came out at 152 µL/min/mg.
The corresponding values for `CC[C@H](C)[C@H]1C(=O)N[C@H](C(=O)N2CCCCC2)Cc2ccc(cc2)CCCCCC(=O)N[C@@H](CC(C)C)C(=O)N2CCC[C@H]2C(=O)N[C@@H](C(C)C)C(=O)N[C@@H](Cc2ccccc2)C(=O)N(C)CC(=O)N[C@@H](CC(C)C)C(=O)N[C@@H](C)C(=O)N1C` [DP-879] (LPVF[Sar]LA[NMeI][Phe(4-(CH2)5CO)]-Piperidide; lactam N-9) are 35 ×10⁻⁶ cm/s and 239 µL/min/mg.
With `C=C1CCC(=O)N[C@@H](CC(C)C)C(=O)N2CCC[C@H]2C(=O)N(C)[C@@H](C(C)C)C(=O)N[C@@H](Cc2ccccc2)C(=O)N(C)CC(=O)N(C)[C@@H](CC(C)C)C(=O)N[C@@H](C)C(=O)N(C)[C@@H]([C@@H](C)CC)C(=O)N[C@H](C(=O)N2CCCCC2)Cc2ccc1cc2` [DP-880], the Papp at 18 hours, 50 µM in data set [1] was 34 ×10⁻⁶ cm/s. Also, the microsomal CLint at 1 uM in data set [2] was 490 µL/min/mg.
As to `CC(C)C[C@@H]1NC(=O)CCCCCc2ccc(cc2)C[C@@H](C(=O)N2CCCCC2)NC(=O)[C@H](Cc2ccccc2)N(C)C(=O)[C@H](CC(C)C)N(C)C(=O)CN(C)C(=O)[C@H]([C@@H](C)O)NC(=O)[C@H](C)N(C)C(=O)[C@H](C(C)C)N(C)C(=O)[C@H](C)NC(=O)[C@H](CC(C)C)N(C)C(=O)[C@H](Cc2ccccc2)N(C)C1=O` [DP-881] (L[NMeF][NMeL]A[NMeV][NMeA]T[Sar][NMeL][NMeF][Phe(4-(CH2)5CO)]-Piperidide; lactam N-11), the Papp at 18 hours, 50 µM in data set [1] stood at 6.8 ×10⁻⁶ cm/s. Besides, the microsomal CLint at 1 uM in data set [2] amounted to 83 µL/min/mg.
The corresponding values for `C=C1CCC(=O)N[C@@H](CC(C)C)C(=O)N(C)[C@@H]([C@@H](C)CC)C(=O)N(C)[C@@H](CC(C)C)C(=O)NCC(=O)N(C)[C@@H](C)C(=O)N[C@@H](Cc2ccccc2)C(=O)N[C@@H]([C@@H](C)O)C(=O)N(C)[C@@H](CC(C)C)C(=O)N[C@@H](Cc2ccccc2)C(=O)N(C)[C@@H](C(C)C)C(=O)N[C@H](C(=O)N2CCCCC2)Cc2cccc1c2` [DP-882] are 1.8 ×10⁻⁶ cm/s and 32 µL/min/mg.
The matching figures for `CC[C@H](C)[C@H]1C(=O)N(C)[C@@H](C)C(=O)N[C@H](C(=O)N2CCCCC2)Cc2ccc(cc2)CCCCCC(=O)N[C@@H]([C@@H](C)O)C(=O)N(C)[C@@H](Cc2ccccc2)C(=O)N(C)[C@@H](CC(C)C)C(=O)N[C@@H](C(C)C)C(=O)N2CCC[C@H]2C(=O)N(C)[C@@H](Cc2ccccc2)C(=O)N[C@@H](CC(C)C)C(=O)N(C)CC(=O)N1C` [DP-883] (T[NMeF][NMeL]VP[NMeF]L[Sar][NMeI][NMeA][Phe(4-(CH2)5CO)]-Piperidide; lactam N-11): 14 ×10⁻⁶ cm/s and 294 µL/min/mg.
The corresponding values for `CC[C@H](C)[C@H]1C(=O)N[C@@H](Cc2ccccc2)C(=O)N(C)[C@@H](Cc2ccccc2)C(=O)N[C@@H]([C@@H](C)O)C(=O)N2CCC[C@H]2C(=O)N[C@@H](CC(C)C)C(=O)N[C@H](C(=O)N2CCCCC2)Cc2cccc(c2)CCCCC(=O)NCC(=O)N(C)[C@@H](C(C)C)C(=O)N(C)[C@@H](CC(C)C)C(=O)N[C@@H](C)C(=O)N1C` [DP-885] (G[NMeV][NMeL]A[NMeI]F[NMeF]TPL[Phe(3-(CH2)4CO)]-Piperidide; lactam N-11) are 30 ×10⁻⁶ cm/s and 75 µL/min/mg.
In the case of `CC[C@H](C)[C@@H]1NC(=O)CCCCc2cccc(c2)C[C@@H](C(=O)N2CCCCC2)NC(=O)[C@H](Cc2ccccc2)N(C)C(=O)[C@H](CC(C)C)N(C)C(=O)CN(C)C(=O)[C@H]([C@@H](C)O)NC(=O)[C@H](C)N(C)C(=O)[C@H](C(C)C)N(C)C(=O)[C@H](C)NC(=O)[C@H](CC(C)C)N(C)C(=O)[C@H](Cc2ccccc2)N(C)C1=O` [DP-886] (I[NMeF][NMeL]A[NMeV][NMeA]T[Sar][NMeL][NMeF][Phe(3-(CH2)4CO)]-Piperidide; lactam N-11), the Papp at 18 hours, 50 µM in data set [1] is 22 ×10⁻⁶ cm/s. Also, the microsomal CLint at 1 uM in data set [2] was 162 µL/min/mg.
